# Numbers after ± are expanded uncertainties.
# Conditions: Crystal
row,Normal melting temperature [°C],SMILES
1,31.27 ± 1.2,CCCCCCCCCC(=O)O [decanoic acid]
2,43.79 ± 1.2,CCCCCCCCCCCC(=O)O [dodecanoic acid]
3,62.29 ± 1.2,CCCCCCCCCCCCCCCC(=O)O [hexadecanoic acid]
4,68.76 ± 1.2,CCCCCCCCCCCCCCCCCC(=O)O [octadecanoic acid]
5,54.33 ± 1.2,CCCCCCCCCCCCCC(=O)O [tetradecanoic acid]

# From the NIST ThermoML archive (doi:10.1021/je060146z)
